Test results taken from publication PMC10578352, “Identification of a Protein Arginine Methyltransferase 7 (PRMT7)/Protein Arginine Methyltransferase 9 (PRMT9) Inhibitor” (Journal of Medicinal Chemistry, 2023).

Columns and labels:
GST-HsPRMT7 = target: T1, GST-HsPRMT7 (Homo sapiens, UniProt Q9NVM4); experiment: Radioisotope-based assay (SDS-PAGE, fluorography, densitometry), HsPRMT7; type: biochemical; conditions: substrate HsH2B, 15 °C, read-out: % HsPRMT7 residual activity
T1 construct: made in house; host or cells: E. coli
T1 sequence (Q9NVM4 1-692): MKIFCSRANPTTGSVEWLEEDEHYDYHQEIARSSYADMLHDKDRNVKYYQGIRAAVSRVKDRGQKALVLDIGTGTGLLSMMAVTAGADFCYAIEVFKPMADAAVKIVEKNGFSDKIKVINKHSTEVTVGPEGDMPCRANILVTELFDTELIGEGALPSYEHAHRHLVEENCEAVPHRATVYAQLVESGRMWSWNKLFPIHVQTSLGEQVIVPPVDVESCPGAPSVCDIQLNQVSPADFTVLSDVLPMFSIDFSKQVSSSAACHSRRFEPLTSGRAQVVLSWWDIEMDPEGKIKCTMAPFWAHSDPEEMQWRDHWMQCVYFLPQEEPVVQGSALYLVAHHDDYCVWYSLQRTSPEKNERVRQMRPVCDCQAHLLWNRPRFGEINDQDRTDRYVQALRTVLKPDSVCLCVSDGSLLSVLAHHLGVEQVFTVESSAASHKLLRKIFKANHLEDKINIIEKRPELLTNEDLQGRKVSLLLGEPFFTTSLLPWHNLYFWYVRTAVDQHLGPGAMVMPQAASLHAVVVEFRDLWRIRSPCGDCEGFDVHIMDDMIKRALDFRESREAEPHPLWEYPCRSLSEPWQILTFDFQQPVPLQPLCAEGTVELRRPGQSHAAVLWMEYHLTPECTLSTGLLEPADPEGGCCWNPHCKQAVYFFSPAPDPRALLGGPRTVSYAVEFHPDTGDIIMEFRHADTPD
Experimental: (§1) Based on these outcomes, we resolved to explore the effect on the capability to inhibit PRMT9 enzymatic activity of further reduction of the distance between the pharmacophoric moieties. […] After the experiment was repeated with 100, 250, and 500 μM concentrations of each inhibitor, half inhibition was observed only at a concentration of roughly 250 μM (Figure 4d).
(§2) […]. The experiments were performed as reported in the Experimental procedures section. GST-HsPRMT9 (a) and GST-HsPRMT7 (b) were incubated with human GST-SF3B2 (401–550) peptide or recombinant HsH2B, respectively (1 μg of enzyme, 5 μg of substrate), 0.14 μM [^3H]SAM, and the indicated concentrations of tested compounds at the corresponding optimal reaction temperature (37 °C for HsPRMT9, 15 °C for HsPRMT7). C. elegans GST-tagged enzymes PRMT9 (c) and PRMT7 (d) were incubated with GST-CeSFTB-2 (99–248) fragment or recombinant HsH2B, respectively (1 μg of enzyme, 5 μg of substrate), 0.14 μM [^3H]SAM, and the indicated concentrations of tested compounds at the corresponding optimal reaction temperature (25 °C for CePRMT9, 15 °C for CePRMT7). After SDS-PAGE, the gels were treated as previously described[48] and densitometry analysis was done using ImageJ software, and data was plotted as normalized activity to the no inhibitor controls.
(§3) Human PRMT9, C. elegans PRMT9, human PRMT7, and C. elegans PRMT7 plasmids were sequenced, expressed in E. coli as GST-fusion proteins, and purified as previously described.[48] Substrates were also sequenced and purified as described [human GST-SF3B2 (401–550);[13]C. elegans SFTB-2;[48] human histone H2B (New England Biolabs, M2505S)]. Xenopus laevis histone H2B was expressed in E. coli and purified similarly to what was previously reported by Luger et al.[72]
(§4) Reactions consisting of approximately 1 μg of enzyme (human or C. elegans GST-tagged enzymes PRMT9 and PRMT7), reacted with approximately 5 μg of substrate [for human PRMT9, human GST-SF3B2 401–550 fragment; C. elegans PRMT9 with C. elegans GST-SFTB-2 (99–248) fragment, or recombinant human histone H2B from New England Biolabs (M2505S)], were incubated for the indicated time in reaction buffer {50 mM potassium HEPES buffer, 10 mM NaCl, 1 mM dithiothreitol (DTT), pH 8.0 with 0.7 μM S-adenosyl-L-[methyl-^3H]methionine (^3H-AdoMet, PerkinElmer Life Sciences, 82.7 Ci/mmol, 0.55 mCi/mL in 10 mM H2SO4/EtOH [9:1 (v/v)])} in a final reaction volume of 60 μL. Each reaction was incubated at the corresponding optimal reaction temperature (37 °C for human PRMT9, 25 °C for C. elegans PRMT9, and 15 °C for C. elegans and human PRMT7 enzymes. MTA was dissolved in water, and a wavelength scan was taken to determine the final concentration using the extinction coefficient. The final concentrations used are indicated in the figure legends. […]. EML734, EML736, and EML709 were also dissolved in DMSO, and further dilutions were made in DMSO for the working stocks. For controls, no inhibitor reactions were created by the addition of the respective solvent (water for MTA and DMSO for EPZ015666 and EML inhibitors).
After the reaction incubations with the various concentrations of inhibitors, the reactions were quenched by adding 0.2 volume of 5× SDS sample loading buffer, and subsequently, the reactions were run on a 12.6% polyacrylamide Tris gel. To collect the radioactive signal, the gels were then treated in the same way as previously described.[48] […]

GST-HsPRMT9 = target: T2, GST-HsPRMT9 (Homo sapiens, UniProt Q6P2P2); experiment: Radioisotope-based assay (SDS-PAGE, fluorography, densitometry), HsPRMT9; type: biochemical
T2 construct: made in house; host or cells: E. coli
T2 sequence (Q6P2P2 1-845): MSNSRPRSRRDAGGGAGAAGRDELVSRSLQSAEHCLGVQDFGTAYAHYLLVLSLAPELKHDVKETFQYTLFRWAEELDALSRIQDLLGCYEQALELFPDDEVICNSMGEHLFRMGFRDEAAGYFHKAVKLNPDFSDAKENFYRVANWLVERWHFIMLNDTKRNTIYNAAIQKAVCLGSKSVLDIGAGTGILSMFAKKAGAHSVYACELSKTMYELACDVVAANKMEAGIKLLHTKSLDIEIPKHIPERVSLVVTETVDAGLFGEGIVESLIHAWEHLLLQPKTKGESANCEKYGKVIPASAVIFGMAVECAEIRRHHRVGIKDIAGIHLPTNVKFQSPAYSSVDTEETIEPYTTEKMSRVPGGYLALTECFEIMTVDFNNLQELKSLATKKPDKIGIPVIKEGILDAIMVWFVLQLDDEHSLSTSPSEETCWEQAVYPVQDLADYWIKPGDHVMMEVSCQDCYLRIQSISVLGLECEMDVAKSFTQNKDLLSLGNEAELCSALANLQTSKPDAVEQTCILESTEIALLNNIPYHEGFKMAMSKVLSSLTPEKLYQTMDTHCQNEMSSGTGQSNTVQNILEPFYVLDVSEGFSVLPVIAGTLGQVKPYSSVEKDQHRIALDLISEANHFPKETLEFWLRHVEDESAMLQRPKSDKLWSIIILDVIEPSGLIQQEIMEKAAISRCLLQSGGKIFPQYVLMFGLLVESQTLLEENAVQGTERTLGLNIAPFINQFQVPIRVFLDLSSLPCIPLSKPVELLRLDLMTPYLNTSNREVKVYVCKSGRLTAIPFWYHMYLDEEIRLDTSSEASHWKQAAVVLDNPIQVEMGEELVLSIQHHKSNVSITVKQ
Experimental: as §1, §2, §3, §4
(§5) After the reaction incubations with the various concentrations of inhibitors, the reactions were quenched by adding 0.2 volume of 5× SDS sample loading buffer, and subsequently, the reactions were run on a 12.6% polyacrylamide Tris gel. To collect the radioactive signal, the gels were then treated in the same way as previously described.[48]
(§6) After various exposures were collected to ensure linear detection, densitometry analysis was done using ImageJ software, and data were plotted as normalized activity to the no inhibitor controls.

CePRMT9 = experiment: Radioisotope-based assay (SDS-PAGE, fluorography, densitometry), CePRMT9; type: biochemical, Caenorhabditis elegans; conditions: substrate GST-CeSFTB-2 (99–248), 25 °C
Experimental: as §1, §2, §3, §4, §5, §6

CePRMT7 = target: T3, CePRMT7 (Caenorhabditis elegans, UniProt Q9XW42); experiment: Radioisotope-based assay (SDS-PAGE, fluorography, densitometry), CePRMT7; type: biochemical; conditions: 100 uM; substrate HsH2B, 15 °C; read-out: % CePRMT7 residual activity
T3 construct: made in house; host or cells: E. coli
T3 sequence (Q9XW42 whole entry): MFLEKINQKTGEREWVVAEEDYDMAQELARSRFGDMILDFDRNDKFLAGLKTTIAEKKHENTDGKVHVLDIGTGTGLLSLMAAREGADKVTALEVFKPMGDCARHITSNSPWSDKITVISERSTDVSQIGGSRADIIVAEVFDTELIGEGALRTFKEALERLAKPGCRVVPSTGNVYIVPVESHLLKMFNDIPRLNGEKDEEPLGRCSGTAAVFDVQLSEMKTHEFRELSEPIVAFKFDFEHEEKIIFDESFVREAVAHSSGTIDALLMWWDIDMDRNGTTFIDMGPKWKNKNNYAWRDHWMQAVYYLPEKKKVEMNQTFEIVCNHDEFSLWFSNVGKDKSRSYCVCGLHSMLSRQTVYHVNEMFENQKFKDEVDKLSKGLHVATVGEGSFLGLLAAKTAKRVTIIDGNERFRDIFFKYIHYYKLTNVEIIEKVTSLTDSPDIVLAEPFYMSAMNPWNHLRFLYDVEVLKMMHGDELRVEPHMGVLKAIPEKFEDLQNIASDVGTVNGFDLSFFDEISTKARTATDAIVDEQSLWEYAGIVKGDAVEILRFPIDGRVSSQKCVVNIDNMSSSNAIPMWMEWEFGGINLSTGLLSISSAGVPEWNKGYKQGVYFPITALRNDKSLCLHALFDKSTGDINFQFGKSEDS
Experimental: as §1, §2, §3, §4, §5, §6

ASH1L/KMT2H = target: T4, ASH1L/KMT2H (Homo sapiens, UniProt Q9NR48); experiment: HotSpot KMT activity assay, ASH1L; type: biochemical
T4 construct: the human recombinant ASH1L (residues 2046–2330, with an N-terminal His-tag); His (N); purchased Reaction Biology Corporation
Excerpt: ; MW = 35.4 kDa; Genbank Accession # NM_018489), or the human recombinant EZH2-containing five-member polycomb repressive complex 2 (including EZH2 residues 2–746, AEBP2 2–517, EED 2–441, RbAp48 2–425, SUZ12 2–739; all full-length; with N-terminal Flag-tag on EED and N-terminal His-tag on all others; MW = 333.8 kDa; Genbank Accession # NM_001203247, NM_001114176, NM_003797, NM_005610, NM_015355), or the human recombinant G9a (residues 913–1193, C-terminus; with an N-terminal His-tag; MW = 34.6 kDa; Genbank Accession # NM_006709.3), or the human recombinant MLL1 complex (including MLL1 residues 3745–3969, C-terminus, WDR5 22–334, C-terminus, RbBP5 1–538, C-terminus, ASH2L 2–534, C-terminus, DPY-30 1–99, C-terminus; N-terminal His-tag on all subunits; MW = 212.0 kDa; Genbank Accession # NM_005933, NM_017588, NM_005057, NM_001105214, NM_0325742), or the human recombinant SET7/9 (residues 2–366, C-terminus; with a N-terminal GST-tag and a C-terminal His-tag; MW = 68.5 kDa; Genbank Accession # NM_030648), or the human recombinant SMYD3 (residues 2–428, C-terminus; C-terminal His-tag; MW = 50.1 kDa; Genbank Accession # NM_001167740), or the human recombinant SUV39H2 (residues 46–410, C-terminus; N-terminal fusion protein with a C-terminal His-tag; MW = 98.8 kDa; GenBank Accession No. NM_001193424), or the human recombinant DOT1L (residues 1–416; N-terminal GST-tag; MW = 80.0 kDa; Genbank Accession # NM_032482) was added to a solution of the proper substrate (oligo nucleosomes for ASH1L, MLL1 complex, and DOT1L, final concentration 0.05 mg/mL; core histone for EZH2 complex and SET7/9, final concentration 0.05 mg/mL; histone H3 for SUV39H2, final concentration 5 μM; histone H3 1–21 for G9a, final concentration 2.5 μM) in freshly prepared reaction buffer (50 mM Tris-HCl (pH 8.5), 5 mM MgCl2, 50 mM NaCl, 1 mM DTT, 1 mM PMSF, 1% DMSO) and gently mixed. […] After incubation for 60 min at 30 °C, the reaction mixture was delivered to filter paper for detection (as assessed by scintillation). […] Values obtained for each compound are mean ± SD determined for two separate experiments.

[1] = substrate GST-SF3B2 (401–550), 37 °C, read-out: % HsPRMT9 residual activity

`O=C(NC[C@H](O)CN1CCc2ccccc2C1)c1cc(NC2COC2)ncn1` [EPZ015666, reference compound] showed a remaining activity at 100 µM (GST-HsPRMT7) of 120%, a remaining activity at 100 µM (GST-HsPRMT9; [1]) of 99.8% and a remaining activity at 250 µM (GST-HsPRMT9; 250 uM, substrate GST-SF3B2 (401–550), 37 °C, read-out: % HsPRMT9 residual activity) of 105%. The remaining activity at 500 µM (GST-HsPRMT9; 500 uM, substrate GST-SF3B2 (401–550), 37 °C, read-out: % HsPRMT9 residual activity) was 98%, the “inhibition of HsPRMT9 (in words)” value (GST-HsPRMT9; up to 500 μM) was “inactive” and the “% CePRMT9 residual activity” value (CePRMT9; 100 uM) was 139.23%. For the same compound, the “% CePRMT9 residual activity” value (CePRMT9; 250 uM) was 132.20%, the “% CePRMT9 residual activity” value (CePRMT9; 500 uM) was 105.26% and the remaining activity at 100 µM (CePRMT7) was 131%.

With `CSC[C@H]1O[C@@H](n2cnc3c(N)ncnc32)[C@H](O)[C@@H]1O` [MTA, 5′-Deoxy-5′-(methylthio)adenosine, reference compound] the remaining activity at 100 µM (GST-HsPRMT7) was 46.8%, the “inhibition of HsPRMT9 (in words)” value (GST-HsPRMT9; 100 μM) was “good inhibition only at 100 μM” and the remaining activity at 100 µM (GST-HsPRMT9; [1]) was 26%. For the same compound, the “% CePRMT9 residual activity” value (CePRMT9; 100 uM) was 23.57% and the remaining activity at 100 µM (CePRMT7) was 130%.

`CN1C(=O)[C@@]23C[C@]4([C@]56C[C@@]78SS[C@@](CO)(C(=O)N7[C@H]5Nc5ccccc56)N(C)C8=O)c5ccccc5N[C@@H]4N2C(=O)[C@]1(CO)SS3` [chaetocin, reference compound] was tested, and the IC50 (ASH1L/KMT2H) was 25 nM.
